Measured values taken from ChEMBL document CHEMBL3621121, “Modeling, synthesis and NMR characterization of novel chimera compounds targeting STAT3” (Medchemcomm, 2014).

Tests used:
[1] = target: Signal transducer and activator of transcription 3 (Homo sapiens) (UniProt P40763); experiment: Inhibition of STAT3 in human HCT116 cells at 10 uM after 24 hrs by firefly and renilla dual luciferase assay; format: cell-based; conditions: HCT-116
[2] = target: Signal transducer and activator of transcription 3 (Homo sapiens) (UniProt P40763); experiment: Inhibition of STAT3 in human HCT116 cells at 50 uM after 24 hrs by firefly and renilla dual luciferase assay; format: cell-based; conditions: HCT-116
[3] = target: Signal transducer and activator of transcription 3 (Homo sapiens) (UniProt P40763); experiment: Inhibition of SH2 domain of STAT3 (unknown origin) using (FITC)-GpYLPQTV after 90 mins by AlphaScreen bead-based nonradioactive assay

Sequence of Signal transducer and activator of transcription 3 (Homo sapiens) (P40763 whole entry, the tested form may be a part): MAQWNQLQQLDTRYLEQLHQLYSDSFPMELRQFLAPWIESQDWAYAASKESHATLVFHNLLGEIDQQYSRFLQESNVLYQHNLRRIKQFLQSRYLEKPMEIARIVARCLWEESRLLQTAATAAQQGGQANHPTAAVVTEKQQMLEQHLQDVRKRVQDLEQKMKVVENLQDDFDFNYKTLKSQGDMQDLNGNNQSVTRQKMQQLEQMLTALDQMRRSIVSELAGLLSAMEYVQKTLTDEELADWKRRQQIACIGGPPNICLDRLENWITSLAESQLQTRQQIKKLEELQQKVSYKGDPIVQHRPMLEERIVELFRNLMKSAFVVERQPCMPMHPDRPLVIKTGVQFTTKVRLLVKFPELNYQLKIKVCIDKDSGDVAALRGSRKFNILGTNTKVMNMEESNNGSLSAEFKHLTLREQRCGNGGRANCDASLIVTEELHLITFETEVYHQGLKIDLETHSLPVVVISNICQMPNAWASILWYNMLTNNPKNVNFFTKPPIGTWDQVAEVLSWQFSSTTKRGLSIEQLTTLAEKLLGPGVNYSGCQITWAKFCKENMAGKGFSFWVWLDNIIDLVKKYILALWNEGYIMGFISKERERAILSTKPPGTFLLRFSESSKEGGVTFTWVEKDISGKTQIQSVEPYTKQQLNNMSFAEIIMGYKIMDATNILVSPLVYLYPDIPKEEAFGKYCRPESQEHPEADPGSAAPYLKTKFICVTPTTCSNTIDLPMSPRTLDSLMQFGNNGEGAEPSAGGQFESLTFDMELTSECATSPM

Structure (SMILES)	inhibition [1] [%]	inhibition [2] [%]	inhibition [3] [%]
O=C1CC2CC(C(=O)Nc3ccc(C(F)(F)F)cc3)c3ccccc3C2=NN1 (single isomer, unassigned; (+)-2a)	-8	12	
O=C(Nc1ccc(C(F)(F)F)cc1)C1Cc2cc(=O)[nH]nc2-c2ccccc21 (racemic)	2	7	
O=C1CC2CC(C(=O)Nc3ccc(C(F)(F)F)cc3)c3ccccc3C2=NN1 (racemic; 2)	-6	3	
O=C1CC2CC(C(=O)Nc3ccc(C(F)(F)F)cc3)c3ccccc3C2=NN1 (single isomer, unassigned; (+)-1)	9	35	< 5
O=C1CC2CC(C(=O)Nc3ccc(C(F)(F)F)cc3)c3ccccc3C2=NN1 (racemic; 1)	-3	6	
O=C1CC2CC(C(=O)Nc3ccc(C(F)(F)F)cc3)c3ccccc3C2=NN1 (single isomer, unassigned; (-)-2b)	1	16	
C[C@H]1COC2=C1C(=O)C(=O)c1c2ccc2c1CCCC2(C)C	78	85	
O=C(Nc1ccc(C(F)(F)F)cc1)C1Cc2cc(=O)[nH]nc2-c2ccccc21 (single isomer, unassigned; (-))	2	30	
O=C(Nc1ccc(C(F)(F)F)cc1)C1Cc2cc(=O)[nH]nc2-c2ccccc21 (stereo in doubt; (+)-3a)	-2	24	
O=C1CC2CC(C(=O)Nc3ccc(C(F)(F)F)cc3)c3ccccc3C2=NN1 (single isomer, unassigned; (-)-1)	9	14	
